Measurements as given in article PMC2248166, “Quantitative peptide binding motifs for 19 human and mouse MHC class I molecules derived using positional scanning combinatorial peptide libraries” (Immunome Research, 2008).

Legend:
[1] = target: HLA B*5101 (Homo sapiens, UniProt P01889, A329T/A93T/A95T/C349S/D138N/D201E/D98Y/E187L/E204Q/E69T/G107R/I218V/K202T/L105A/L119W/N104I/Q94N/R106L/R155S/R180L/S101N/S121T/S35A/S48A/V306I/V36M/Y195H/Y91F); type: binding
[2] = target: HLA B*5301 (Homo sapiens, UniProt P01889, A329T/A93T/A95T/C349S/D201E/D98Y/E176V/E187L/E204Q/E69T/G107R/I218V/K202T/L105A/L119I/N104I/Q94N/R106L/R155S/R180L/S101N/S121R/S35A/S48A/T118I/V127L/V306I/V36M/Y140S/Y91F); type: binding
[3] = target: HLA B*2705 (Homo sapiens, UniProt P01889, D138H/D201E/E176V/E204Q/G107R/H137Y/K202T/N104T/N87E/Q56L/Q94K/R106L/R155S/R180L/S101D/S121N/S48T/Y140D/Y33H/Y91C); type: binding; details: positional scanning combinatorial 9-mer library; normalized to 1.0 for the best residue at each position
[4] = target: HLA B*3501 (Homo sapiens, UniProt P01889, A329T/A93T/A95T/C349S/D201E/D98Y/E176V/E187L/E204Q/E69T/I218V/K202T/L119I/Q94N/R155S/R180L/S121R/S35A/S48A/T118I/V127L/V306I/V36M/Y140S/Y91F); type: binding
[5] = target: H-2 K^k (Mus musculus, UniProt P04223); type: binding
[6] = target: HLA B*5801 (Homo sapiens, UniProt P01889, A329T/C349S/D201E/D98Y/E176V/E187L/E204Q/E69T/G107R/I218V/I90N/K202T/L105A/L119I/N104I/N87E/Q89R/Q94S/R106L/R155S/R180L/R86G/S101N/S121R/S35A/S48A/T118I/V127L/V306I/V36M/Y140S/Y91M); type: binding
[7] = target: H-2 D^b (Mus musculus, UniProt P01899); type: binding
[8] = target: HLA A*0201 (Homo sapiens, UniProt P04439, D140Y/D185E/D98H/E176V/E277Q/G131W/G231S/I119V/I121R/I166T/I218V/L300P/L318F/N151K/N90K/P208A/P217A/Q86G/Q94H/R138H/R169H/T345S); details: positional scanning combinatorial 9-mer library; normalized to 1.0 for the best residue at each position
[9] = target: HLA B*0801 (Homo sapiens, UniProt P01889, A93T/A95T/D138N/E176V/E187T/K202T/Q94N/R180D/S35A/V36M/Y33D/Y91F); assay: biochemical; type: binding
[10] = target: HLA B*5802 (Homo sapiens, UniProt P01889, A329T/C349S/D201E/D98Y/E176V/E187L/E204Q/E69T/G107R/I218V/I90N/K202T/L105A/N104I/N87E/Q89R/Q94S/R106L/R155S/R180L/R86G/S101N/S121W/S35A/S48A/V127L/V306I/V36M/Y140S/Y91M); type: binding
[11] = target: HLA B*1503 (Homo sapiens, UniProt P01889, A329T/A93T/A95T/C349S/D201E/D98Y/E187L/E204Q/K202T/N87E/Q94N/R155S/R180L/S121R/S35A/V306I/V36M/Y140S/Y91S); assay: biochemical; type: binding
[12] = target: HLA B*1501 (Homo sapiens, UniProt P01889, A329T/A93T/A95T/C349S/D201E/D98Y/E187L/E204Q/E69M/E70A/K202T/N87E/Q94N/R155S/R180W/S121R/S35A/S48A/V306I/V36M/Y140S/Y91S); assay: biochemical; type: binding
[13] = target: HLA A*3001 (Homo sapiens, UniProt P04439, D140H/D185E/E176W/F33S/G80R/H175R/K168Q/R138E/R41S); assay: biochemical; type: binding
[14] = target: H-2 D^d (Mus musculus, UniProt P01900); type: binding
[15] = target: HLA A*6802 (Homo sapiens, UniProt P04439, A269V/D140Y/D185E/E176V/E277Q/E87N/F33Y/G231S/I121R/I166T/I218V/L180W/L300P/L318F/N151K/P208A/P217A/Q86R/R138H/R169H/S129P/T345S/V36M); type: binding
[16] = target: HLA B*5401 (Homo sapiens, UniProt P01889, A329T/C349S/D138N/D201E/E176V/E187T/E204Q/E69G/I76V/K202T/L119W/R155S/R180L/S121T/S35A/S48A/V127L/V306I/V36M/Y140L); type: binding
[17] = target: HLA A*3201 (Homo sapiens, UniProt P04439, A270S/D101S/D185E/E176V/E277Q/F133L/G103R/G107R/G231S/H175R/I121M/I218V/I322F/K168Q/L105A/L300P/L318F/M331R/P208A/P217A/Q94H/R106L/R138Q/S129P/T104I/T323A/T345S/V100E/V321M/V358M); assay: biochemical; type: binding
[18] = target: HLA B*0702 (Homo sapiens, UniProt P01889); type: binding; details: positional scanning combinatorial 9-mer library; normalized to 1.0 for the best residue at each position

Chain of H-2 D^b (P01887 21-119): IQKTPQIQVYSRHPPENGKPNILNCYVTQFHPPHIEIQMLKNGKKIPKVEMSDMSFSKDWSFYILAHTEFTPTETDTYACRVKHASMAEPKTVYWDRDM
Chain of H-2 D^b (P01899 25-362): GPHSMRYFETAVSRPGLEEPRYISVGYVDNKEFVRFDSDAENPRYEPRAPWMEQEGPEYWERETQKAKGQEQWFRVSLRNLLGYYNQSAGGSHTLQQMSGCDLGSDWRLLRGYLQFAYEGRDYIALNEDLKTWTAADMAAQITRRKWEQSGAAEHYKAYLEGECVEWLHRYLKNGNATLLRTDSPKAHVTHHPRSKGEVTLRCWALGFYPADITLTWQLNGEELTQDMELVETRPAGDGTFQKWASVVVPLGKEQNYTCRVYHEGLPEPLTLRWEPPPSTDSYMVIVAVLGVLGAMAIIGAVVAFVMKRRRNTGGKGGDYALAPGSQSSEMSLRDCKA
Chain of H-2 K^k (P01887 21-119): as the sequence (P01887 21-119) above
Chain of H-2 K^k (P04223 22-369): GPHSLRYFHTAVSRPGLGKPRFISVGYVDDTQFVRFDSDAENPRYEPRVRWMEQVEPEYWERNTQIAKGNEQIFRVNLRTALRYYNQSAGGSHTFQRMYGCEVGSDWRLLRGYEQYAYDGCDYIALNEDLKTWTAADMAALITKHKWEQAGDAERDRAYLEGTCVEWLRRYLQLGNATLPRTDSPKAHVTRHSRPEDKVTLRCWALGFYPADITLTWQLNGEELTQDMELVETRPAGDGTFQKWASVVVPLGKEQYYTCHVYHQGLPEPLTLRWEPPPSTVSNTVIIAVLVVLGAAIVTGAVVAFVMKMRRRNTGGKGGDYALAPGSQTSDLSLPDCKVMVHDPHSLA
Chain of H-2 D^d (P01900 whole entry, looked up): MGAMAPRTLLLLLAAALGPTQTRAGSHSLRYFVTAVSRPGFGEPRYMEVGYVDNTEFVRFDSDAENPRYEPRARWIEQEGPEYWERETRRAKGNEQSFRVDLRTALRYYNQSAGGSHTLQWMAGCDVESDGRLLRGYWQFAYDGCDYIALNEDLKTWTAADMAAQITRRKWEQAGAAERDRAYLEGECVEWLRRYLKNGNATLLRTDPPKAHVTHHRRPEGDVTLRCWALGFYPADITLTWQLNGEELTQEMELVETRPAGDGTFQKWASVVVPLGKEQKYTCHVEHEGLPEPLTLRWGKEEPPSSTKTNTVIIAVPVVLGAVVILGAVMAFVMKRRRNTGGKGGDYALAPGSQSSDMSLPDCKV

Row | Sequence | Normalized average relative binding affinity (ARB), HLA B*5101 [1] | Normalized average relative binding affinity (ARB), HLA B*5301 [2] | Normalized average relative binding affinity (ARB), HLA B*2705 [3] | Normalized average relative binding affinity (ARB), HLA B*3501 [4] | Normalized average relative binding affinity (ARB), H-2 Kk [5] | Normalized average relative binding affinity (ARB), HLA B*5801 [6] | Normalized average relative binding affinity (ARB), H-2 Db [7] | Normalized average relative binding affinity (ARB), HLA A*0201 [8] | Normalized average relative binding affinity (ARB), HLA B*0801 [9] | Normalized average relative binding affinity (ARB), HLA B*5802 [10] | Normalized average relative binding affinity (ARB), HLA B*1503 [11] | Normalized average relative binding affinity (ARB), HLA B*1501 [12] | Normalized average relative binding affinity (ARB), HLA A*3001 [13] | Normalized average relative binding affinity (ARB), H-2 Dd [14] | Normalized average relative binding affinity (ARB), HLA A*6802 [15] | Normalized average relative binding affinity (ARB), HLA B*5401 [16] | Normalized average relative binding affinity (ARB), HLA A*3201 [17] | Normalized average relative binding affinity (ARB), HLA B*0702 [18]
1 | XLXXXXXXX [3064.0030] | 0.022 | 0.035 | 0.0053 | 0.035 | 0.062 | 0.043 | 0.18 | 1.0 | 0.72 | 0.13 | 0.18 | 0.52 | 0.16 | 0.035 | 0.097 | 0.0037 | 0.29 | 0.016
2 | XMXXXXXXX [3064.0031] | 0.039 | 0.040 | 0.010 | 0.035 | 0.012 | 0.0033 | 0.73 | 0.19 | 0.70 | 0.17 | 0.57 | 0.96 | 0.70 | 0.018 | 0.055 | 0.0072 | 0.63 | 0.0028
3 | XNXXXXXXX [3064.0032] | 0.022 | 0.0083 | 0.0016 | 0.0078 | 0.0053 | 0.012 | 0.11 | 0.0062 | 0.16 | 0.20 | 0.032 | 0.052 | 0.10 | 0.018 | 0.034 | 0.0018 | 0.025 | 0.0028
